Source: patent US20260097111A1, “ETHER LIPIDS FOR HYPERACTIVATION OF MAMMALIAN DENDRITIC CELLS” (priority 2022, published 2026)

How the values were obtained:
[1] = test system: human moDC; assay: Staining moDC for activation marker expression; assay type: cell-based
Procedure: Staining moDC for Activation Marker Expression. After treatment and supernatant collection, cells were resuspended in 200 μL/well PBS and transferred to 96-well V-bottom plates. To pellet cells and remove supernatant, plates were spun at 400×g for 4 min for this and subsequent steps. Cells were washed again with 200 μL/well PBS and pelleted. Live/dead Near-IR staining dye was diluted 1000-fold in PBS. […] Fc block was diluted 100-fold in FACS buffer, and 100 μL/well was added to cells. Cells were incubated with Fc block for 10 min at 4° C. During incubation primary CCR7 antibody (clone 2H4) was diluted 100-fold in FACS buffer. Cells were pelleted and primary CCR7 antibody was added at 100 μL/well. Cells were incubated at 37° C. for 30 min. Biotinylated rat anti-mouse IgM secondary was prepared by diluting 200-fold in FACS buffer. Cells were washed twice with FACS buffer before 100 μL/well secondary antibody was added. Cells were incubated at 4° C. for 20 min. Tertiary staining antibody cocktail was prepared in a mixture of FACS buffer and Brilliant Stain Buffer (1:1 volume ratio of each buffer). […], CD11c (PE-Cy7), CD209 (PE), CD40 (UV563), CD83 (UV737), CD86 (BV711), and HLA-DR (UV395) were all diluted 200-fold. HLA-ABC (BV605) was diluted 100-fold. […]
For flow cytometry analysis, fluorescence compensation was set up using compensation […]. […]

[2] = test system: human moDCs; assay: In vitro transwell migration assay towards CCL19; assay type: cell-based; details: donor HD87, 10 ng/mL CCL19; FIG. 34A
Procedure: In Vitro Transwell Migration Assay. To test the capacity of human dendritic cells to migrate, an in vitro migration assay was set up. After differentiation into moDC using GM-CSF and IL-4, cells were plated on 10 cm petri dishes at 4×10^6 cells/plate in R10++. Cells were treated with various combinations of 2.85 μM R848, 82.5 μM DGP, and 10 μM MCC950 (final concentrations). Additionally, 50 ng/mL GM-CSF and 25 ng/mL IL-4 was added to the plates. Cell cultures were incubated in a total of 8 mL/plate in a 37° C. incubator on an orbital shaker set at 100 rpm overnight.
Cells were collected from plates and any remaining cells on plates were washed off the plates using PBS. After pelleting cells at 400×g for 5 min, cells were resuspended in R10++ and counted. Cell concentrations were adjusted to 5×10^5 cells/mL and plated in triplicate in the apical chambers of transwells at 1.5×10^5 cells/well. R10++ media containing 0; 20; or 200 ng/mL CCL19 were prepared and added to the basal chambers at 300 μL/well. For each cell treatment condition, control wells without transwell inserts were plated with an equivalent volume of cells and R10++ media. […]
To enumerate migrated DCs, an absolute count was obtained based on the total events acquired of counting beads and live, CD11c+CD209+ single cells. […] Finally, migration was calculated relative to cells treated with only R848 with no CCL19 added.

Row | Structure (SMILES) | percentage of CD83+ cells ([1]; 2.85 μM R848 and/or 82.5 μM DGP, overnight, FIG. 24A) | CD86 MFI ([1]; FIG. 25B) | migration to the basal chamber [2]
1 | CCCCCCCCCCCCCCCCCCCCCCOC[C@@H](O)COP(=O)(O)O [Compound 2, 1-docosyl-sn-glycerol-3-phosphate] | increased CD83 expression, but increase was not found to be statistically significant | significant increases in CD86 expression as compared to unstimulated cells | 
2 | CC(C)(O)c1coc(S(=O)(=O)NC(=O)Nc2c3c(cc4c2CCC4)CCC3)c1 [MCC950, reference compound] |  |  | did not inhibit the hypermigration observed with R848+DGP
